According to US20130315843A1, “COMPOSITION FOR REDUCTION OF TRPA1 AND TRPV1 SENSATIONS” (priority 2012, published 2013):
Like-named read-outs stand apart in the source and are kept apart here.

Target: human TRPA1 (Homo sapiens, UniProt O75762)
Assay: FLIPR Ca2+ assay, reduction of hydrogen peroxide activation of TRPA1
Format: cell-based
Parameters: expressed in transfected cells
Conditions: for inhibition at 400 µM / inhibition at 100 µM: read-out: % Reduction of Hydrogen Peroxide TRPA1 Activation
Experimental: After centrifugation, a pellet of cells was formed in the bottom of the tube separating them from the supernatant solution.
The pelleted cells were re-suspended in 10 ml assay buffer and 90 μl aliquots (˜50,000 cells) per well delivered to a 96-well assay plate containing 10 μl of test compounds ([…]) or buffer control and incubated at room temperature for 30 minutes.

[1] = 100 μM antagonist vs 500 μM hydrogen peroxide
[2] = 400 μM antagonist vs 500 μM hydrogen peroxide
[3] = antagonist 400 μM against 200 μM hydrogen peroxide
[4] = compound 100 μM against 200 μM hydrogen peroxide, Sets 1-4

Sequence of human TRPA1 (O75762 whole entry): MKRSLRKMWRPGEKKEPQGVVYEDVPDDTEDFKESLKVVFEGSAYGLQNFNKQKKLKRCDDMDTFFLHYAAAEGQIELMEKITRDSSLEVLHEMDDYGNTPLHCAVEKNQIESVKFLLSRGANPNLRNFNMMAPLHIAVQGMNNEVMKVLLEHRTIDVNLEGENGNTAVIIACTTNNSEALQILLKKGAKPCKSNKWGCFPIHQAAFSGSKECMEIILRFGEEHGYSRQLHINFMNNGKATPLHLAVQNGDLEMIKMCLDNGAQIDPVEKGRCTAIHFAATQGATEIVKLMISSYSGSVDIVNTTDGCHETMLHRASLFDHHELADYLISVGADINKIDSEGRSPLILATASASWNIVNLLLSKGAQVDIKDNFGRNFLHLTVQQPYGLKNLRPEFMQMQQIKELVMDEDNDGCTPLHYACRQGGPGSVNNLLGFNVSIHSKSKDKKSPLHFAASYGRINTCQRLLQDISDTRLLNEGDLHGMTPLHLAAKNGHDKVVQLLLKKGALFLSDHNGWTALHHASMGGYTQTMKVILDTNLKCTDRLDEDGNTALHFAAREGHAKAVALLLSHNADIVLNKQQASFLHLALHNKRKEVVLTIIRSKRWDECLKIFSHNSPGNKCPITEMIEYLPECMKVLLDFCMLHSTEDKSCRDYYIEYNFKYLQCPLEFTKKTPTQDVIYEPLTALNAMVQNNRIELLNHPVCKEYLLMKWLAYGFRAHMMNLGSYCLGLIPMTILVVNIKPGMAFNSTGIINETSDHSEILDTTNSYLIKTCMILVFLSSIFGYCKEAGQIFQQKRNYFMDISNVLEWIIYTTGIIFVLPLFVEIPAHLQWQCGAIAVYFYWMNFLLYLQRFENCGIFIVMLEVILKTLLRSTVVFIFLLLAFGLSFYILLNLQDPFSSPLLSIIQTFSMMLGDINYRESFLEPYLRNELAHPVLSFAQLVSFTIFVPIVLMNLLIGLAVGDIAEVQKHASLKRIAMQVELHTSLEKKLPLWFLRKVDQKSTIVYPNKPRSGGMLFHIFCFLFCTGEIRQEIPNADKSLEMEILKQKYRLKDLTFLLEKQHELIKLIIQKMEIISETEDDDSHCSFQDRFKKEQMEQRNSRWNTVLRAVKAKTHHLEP

| Block of hydrogen peroxide activation of TRPA1 [1] | Average Ca++ Counts [4] | inhibition at 100 µM [4] | Structure (SMILES) | other results |
| --- | --- | --- | --- | --- |
|  |  |  | C[C@H]1CC[C@]2(O1)C(C)(C)CCC[C@]2(C)O | Block of hydrogen peroxide activation of TRPA1 [2]: BLOCK ONLY H2O2/TRPA1 |
|  |  |  | CCCC1CC(=O)C=C(C)C1 (stereo not shown) | Block of hydrogen peroxide activation of TRPA1 [2]: BLOCK ONLY H2O2/TRPA1 |
|  |  |  | CC(C)C=C(C=O)c1ccccc1 (mixture of isomers) [4-Methyl-2-phenyl-2 Pentenal] | inhibition at 400 µM [3]: 54% |
|  |  |  | CC1=CC(=O)[C@@H]2C[C@H]1C2(C)C (racemic) [dl-verbenone] | % Reduction of Hydrogen Peroxide TRPA1 Activation: 54.1%; Average Ca++ Counts: 3231.0 Counts; Block of hydrogen peroxide activation of TRPA1: BLOCK ONLY H2O2/TRPA1 |
| BLOCK ONLY H2O2/TRPA1 | 5664.5 Counts | 46.5% | CCCCCCO [1-hexanol] |  |
| BLOCK ONLY H2O2/TRPA1 | 3228.5 Counts | 54.2% | C=CC(CCCCC)OC(C)=O (stereo not shown) [1-octen-3-yl acetate] |  |
| BLOCK ONLY H2O2/TRPA1 | 3396.0 Counts | 51.8% | CCCCCCCCCCCO [1-undecanol] |  |
| BLOCK ONLY H2O2/TRPA1 | 4610.5 Counts | 56.5% | CSCSCSC [2,4,6-trithiaheptane] |  |
| BLOCK ONLY H2O2/TRPA1 | 5208.0 Counts | 50.8% | Cc1ccc(C)c(O)c1 [2,5-dimethylphenol] |  |
|  |  |  | c1ccc(CCCC2CCCO2)cc1 (stereo not shown) [2-(3-Phenylpropyl) tetrahydrofuran] | Block of hydrogen peroxide activation of TRPA1 [2]: BLOCK ONLY H2O2/TRPA1; inhibition at 400 µM [3]: 74% |
| BLOCK ONLY H2O2/TRPA1 |  |  | CCCCCCC1OCC(C)O1 (stereo not shown) [2-Hexyl-4-methyl-1,3-dioxolane] |  |
|  |  |  | CCCc1ccc(O)c(OC)c1 [2-Methoxy-4-propyl-phenol] | Block of hydrogen peroxide activation of TRPA1: BLOCK ONLY H2O2/TRPA1; inhibition at 400 µM: 43% |
| BLOCK ONLY H2O2/TRPA1 | 2937.0 Counts | 58.3% | CC(=O)c1ccc(C)o1 [2-acetyl-5-methylfuran] |  |
| BLOCK ONLY H2O2/TRPA1 | 4960.5 Counts | 53.2% | CCCCC(CC)CO (stereo not shown) [2-ethyl-1-hexanol] |  |
|  | 3376.0 Counts | 52.1% | CCCCCCC1OCC(C)O1 (stereo not shown) [2-hexyl-4-methyl-1,3-dioxolan] |  |
|  |  |  | CC1=C(O)C(=O)CC1.O [2-hydroxy-3-methyl-2-cyclopenten-1-one hydrate] | Average Ca++ Counts: 4172.0 Counts; inhibition at 100 µM: 60.6% |
| BLOCK ONLY H2O2/TRPA1 | 3208.0 Counts | 54.5% | CCC(C)CS (stereo not shown) [2-methyl-1-butanethiol] |  |
| BLOCK ONLY H2O2/TRPA1 | 5040.0 Counts | 52.4% | CCC=C(C)C(=O)O [2-methyl-2-pentenoic acid] |  |
| BLOCK ONLY H2O2/TRPA1 | 3197.0 Counts | 54.6% | CCOc1nccnc1C [2-methyl-3-ethoxypyrazine] |  |
| BLOCK ONLY H2O2/TRPA1 | 4994.0 Counts | 52.9% | CCCCC(=O)C(C)C [2-methyl-3-heptanone] |  |
| BLOCK ONLY H2O2/TRPA1 | 3064.5 Counts | 56.5% | CCCCCCCC(C)O (stereo not shown) [2-nonanol] |  |
| BLOCK ONLY H2O2/TRPA1 | 3809.0 Counts | 56.3% | CC=C(C=O)c1ccccc1 [2-phenyl-2-butenal] |  |
| BLOCK ONLY H2O2/TRPA1 | 4875.0 Counts | 54% | CCC(=O)c1nccs1 [2-propionylthiazole] |  |
| BLOCK ONLY H2O2/TRPA1 | 3049.0 Counts | 56.7% | CCCCCCCCCC(C)O (stereo not shown) [2-undecanol] |  |
|  |  |  | CC1CC(O)CC(C)(C)C1 (stereo not shown) [3,3,5-Trimethylcyclohexanol] | Block of hydrogen peroxide activation of TRPA1 [2]: BLOCK ONLY H2O2/TRPA1; inhibition at 400 µM [3]: 72% |
| BLOCK ONLY H2O2/TRPA1 |  |  | CC(C)CCCC(C)CCO (stereo not shown) [3,7-Dimethyl-1-octanol] |  |

| Block of hydrogen peroxide activation of TRPA1 [1] | Average Ca++ Counts [4] | inhibition at 100 µM [4] | Structure (SMILES) | other results |
| --- | --- | --- | --- | --- |
|  | 5168.0 Counts | 51.2% | CC(C)CCCC(C)CCO (stereo not shown) [3,7-dimethyl-1-octanol, 95%, 3,7-dimethyl-1-octanol] |  |
|  |  |  | CCCCCCCC1CC(C)OC1=O (stereo not shown) [3-Heptyldihydro-5-methyl-2(3H)-furanone] | Block of hydrogen peroxide activation of TRPA1 [2]: BLOCK ONLY H2O2/TRPA1; inhibition at 400 µM [3]: 59% |
| BLOCK ONLY H2O2/TRPA1 | 2981.0 Counts | 57.7% | CC(=O)c1cccnc1 [3-acetylpyridine, 98%, 3-acetylpyridine] |  |
|  |  |  | CCCC(CCOC(C)=O)SC(C)=O (stereo not shown) [3-acetylsulfanylhexyl acetate] | Block of hydrogen peroxide activation of TRPA1 [2]: BLOCK ONLY H2O2/TRPA1; inhibition at 400 µM [3]: 58% |
| BLOCK ONLY H2O2/TRPA1 | 3381.5 Counts | 52% | CCCC(=O)CC [3-hexanone] |  |
| BLOCK ONLY H2O2/TRPA1 | 3284.5 Counts | 53.4% | O=C(O)c1cccc(O)c1 [3-hydroxybenzoic acid] |  |
| BLOCK ONLY H2O2/TRPA1 | 1255.5 Counts | 82.2% | CCC(S)C(C)=O (stereo not shown) [3-mercapto-2-pentanone] |  |
| BLOCK ONLY H2O2/TRPA1 | 3246.5 Counts | 53.9% | CC1CCC(=O)C1=O (stereo not shown) [3-methyl-1,2-cyclopentanedione] |  |
|  |  |  | CC(=O)CCc1ccc2c(c1)OCO2 [4-benzo[1,3]dioxol-5-yl-butan-2-one] | Average Ca++ Counts: 5431.5 Counts; Block of hydrogen peroxide activation of TRPA1: BLOCK ONLY H2O2/TRPA1; inhibition at 100 µM: 48.7% |
|  | 3424.5 Counts | 51.4% | O=Cc1ccc(O)cc1 [4-hydroxybenzaldehyde] |  |
|  | 3322.5 Counts | 43.5% | CSCCC(C)=O [4-methylthio-2-butanone] |  |
| BLOCK ONLY H2O2/TRPA1 | 3244.5 Counts | 53.9% | CC(=O)c1ccc(C)cc1 [4′-methylacetophenone] |  |
| BLOCK ONLY H2O2/TRPA1 | 4747.0 Counts | 55.2% | CC(C)CCCC(=O)O [5-methylhexanoic acid] |  |
| BLOCK ONLY H2O2/TRPA1 | 3357.5 Counts | 52.3% | CCCCCC(=O)CCCCC [6-undecanone] |  |
|  |  |  | CCCCC(=O)OC1CC2CCC1(C)C2(C)C (stereo not shown) [Bornyl Valerate] | Block of hydrogen peroxide activation of TRPA1 [2]: BLOCK ONLY H2O2/TRPA1; inhibition at 400 µM [3]: 52% |
|  |  |  | CCCC1CC(=O)C=C(C)C1 (stereo not shown) [Celery Ketone, 2-Cyclohexen-1-one, 3-methyl-5-propyl-] | inhibition at 400 µM [3]: 56% |
|  |  |  | CC(=O)OCCC(C)CCC=C(C)C (stereo not shown) [Citronellyl acetate] | Block of hydrogen peroxide activation of TRPA1 [2]: BLOCK ONLY H2O2/TRPA1; inhibition at 400 µM [3]: 70% |
|  |  |  | C[C@H]1CC[C@]2(O1)C(C)(C)CCC[C@]2(C)O [Hydroxydihydrotheaspirane, 1-Oxaspiro[4.5]decan-6-ol, 2,6,10,10-tetramethyl-, (2S,5S,6S)-6-] | % Reduction of Hydrogen Peroxide TRPA1 Activation [3]: 57% |
|  |  |  | COC(=O)c1ccccc1OC [Methyl 2-methoxy-benzoate] | Block of hydrogen peroxide activation of TRPA1 [2]: BLOCK ONLY H2O2/TRPA1; inhibition at 400 µM [3]: 48% |
|  |  |  | COC(=O)CCCc1ccccc1 [Methyl-4-phenyl butyrate] | Block of hydrogen peroxide activation of TRPA1 [2]: BLOCK ONLY H2O2/TRPA1; % Reduction of Hydrogen Peroxide TRPA1 Activation [3]: 60% |
|  |  |  | CC(O)C(=O)NCCO (stereo not shown) [N-(2-Hydroxyethyl) lactamide] | Block of hydrogen peroxide activation of TRPA1 [2]: BLOCK ONLY H2O2/TRPA1; inhibition at 400 µM [3]: 65% |
|  |  |  | CCCCCCC1CCCC(=O)O1 (stereo not shown) [Undecanoic-δ-Lactone] | % Reduction of Hydrogen Peroxide TRPA1 Activation: −42% |
| BLOCK ONLY H2O2/TRPA1 |  |  | COc1cc(C(=O)O)ccc1O [Vanillic Acid] | inhibition at 100 µM (antagonist 100 μM against 200 μM hydrogen peroxide): 19% |
|  |  |  | CC1=CC(O)CC(C)C2CC(=C(C)C)CC12 (stereo not shown) [Vetiverol, 6-Azulenol, 1,2,3,3a,4,5,6,8a-octahydro-4,8-dimethyl-2-(1-methylethylidene)-] | inhibition at 400 µM [3]: -34% |
| BLOCK ONLY H2O2/TRPA1 | 2860.5 Counts | 59.4% | C=C(C)OC(C)=O [acetic acid isopropenyl ester] |  |
| BLOCK ONLY H2O2/TRPA1 | 4341.5 Counts | 59% | CC(=O)C(C)O (stereo not shown) [acetoin] |  |

| Structure (SMILES) | Block of hydrogen peroxide activation of TRPA1 [1] | Average Ca++ Counts [4] | inhibition at 100 µM [4] | other results |
| --- | --- | --- | --- | --- |
| CC(=O)OCC(C)(C)Cc1ccccc1 | BLOCK ONLY H2O2/TRPA1 |  |  |  |
| CCC(C)COC(=O)C(C)CC (stereo not shown) [2-Methyl butyl 2-methylbutyrate] | BLOCK ONLY H2O2/TRPA1 |  |  |  |
| CCC(C)COC(=O)C(C)CC (stereo not shown) [2-methylbutyl 2-methylbutyrate] |  | 2685.5 Counts | 61.9% |  |
| C=C(C)c1ccc(C)cc1 [Alpha-p-dimethylstyrene] | BLOCK ONLY H2O2/TRPA1 |  |  |  |
